Entries after “also recorded” stand apart in the source; their conditions may differ.
Columns and labels:
[1] = system: Tet2-KO Lin-negative bone marrow cells; assay: CFU (colony forming unit) assay, primary and secondary replating; type: cell-based, mouse; settings: primary and secondary plating, in vitro
Description: CFU assay. Bone marrow Lin-negative cells or LSK cells were isolated as described above and platted in a CFU assay using MethoCult™ GF M3434 (Stem Cell). Colonies were counted after 7-days of culture.

aged Tet2-KO mice = assay: Treatment of aged Tet2-KO mice with early signs of MPN; type: in vivo, mouse; settings: for frequency of LSKs and CMPs / neutrophil counts (absolute numbers, burden) in peripheral blood / neutrophil frequency (percentage) in peripheral blood / platelet counts / red blood cell (RBC) counts (anemia) / serum IL-6 levels / spleen weight / splenomegaly / white blood cell (WBC) burden/count: treatment for 14 days; for early signs of MPN: aged Tet2-KO mice
Experimental: (§1) Lipopolysaccharide (LPS) was purchased from Sigma (Cat # L8643) and dissolved in sterile phosphate-buffered saline (PBS) prior to being given to the mice for one dose only (0.8 mg/kg, i.p.). APX3330 (also referred to herein as E3330) was dissolved in Cremophor:EtOH (1:1) (Cremophor were purchased from Sigma, Cat # C5135) for making solution stock and then diluted in PBS prior to be used for pre-LPS treatment or post-LPS treatment (20 mg/kg, twice a day, i.p.). SHP099 (provided by Norvartis), was dissolved in 0.5% Methylcellulose (Sigma, Cat# M0262) and 0.1% Tween-80 (Fisher Scientific, Cat #BP338-500) and fed to animals by gavage (daily, 50 mg/kg). Male and female mice between 3-4 weeks (juvenile mice) or 8-16 weeks (adult mice) of age were used for LPS or LPS plus APX3330 experiments. Age and sex matched mice were always used as naïve (Day 0) controls. Aged Tet2-KO mice (male or female, 6-8 months of age) were used for APX3330 or SHP099 treatment in FIGS. 11A-11D.
(§2) Hematological analysis on peripheral blood (PB, from tail-bleeding) was run by an automated cell counter machine (Drew Hemavet 950). Total bone marrow (BM) cells were harvested from two femurs and two tibias of mice and filtered on 50-μm sterile filters. BM cells were always kept on ice or in refrigeration and stored in sterile blocking buffer containing 2% rat-serum prior to analysis. BM cellularity (viable cell counts) was analyzed by an automated cell counter (Beckman the Vi-CELL™ Cell Counter for Cell Viability Analyzer).
(§3) Flow cytometry. Non-lysed BM cells were used for analysis of erythroid lineage and progenitor cells (Ter119 and CD71 staining). Remaining flow cytometry analysis was performed on lysed bone marrow cells (Lysis Buffer, BD, Cat #555899). Antibodies against Ter119, Mac1, Gr1, B220, CD3, CD4 and CD8 were used for mature cells labeling (Linage labeling). Progenitor cells were labeled and analyzed by indicated markers. Antibody-labeled BM cells were run on a BD FACS-CANTO II machine with a two-laser and six-filter configuration. The properly compensated flow data were analyzed by Flow Jo software (V10.2). Events plotting, calculation of frequency and mean of fluorescence intensity (MFI), and histogram overlaying were analyzed by Flow Jo software.
Multiplex cytokine assays. Serum samples were prepared from PB (tail-bleeding) and diluted in sterile PBS (1 to 2 dilution(s)). Thirty-one cytokines or chemokines were quantified by multiplex immunoassay with a BioPlex 200 instrument (Eve Technologies, Mouse Cytokine Array/Chemokine Array 31-Plex, Cat # MD31).
Statistics. All experimental procedures on Tet2-KO samples were run in parallel with wildtype controls (sex and age matched littermate controls when possible) for observing experimental variabilities. Analysis of grouped data was not blinded and no samples were excluded. Aged Tet2-KO mice were randomized into two groups for treatment with APX3330 or vehicle, SHP099 or vehicle (FIGS. 11A-11D). P-value was calculated using an unpaired t-test for comparing means of two groups (GraphPad Prism 6.0). Error bars in FIGS. 1-10 and 11A indicate the standard error of mean (s.e.m.) while error bars in FIG. 11C indicate the standard deviation (s.d.). Except that the secondary cBMT was performed in only one independent experiment for each group, all other assays were performed in at least two independent experiments with at least 3-5 biological replicates in total.
Furthermore, aged Tet2-KO maintained higher level of serum IL-6 compared to wildtype mice (FIG. 13H). 6-month old Tet2-KO mice were treated with APX3330 or SHP099 to assess the potential therapeutic benefit of these drugs in older mice (daily treatment for 14 days, FIG. 13I).

Morrbid promoter = assay: CHIP-qPCR assay of IκBζ and Stat3 binding; type: cell-based, mouse; settings: Tet2-KO Lin-negative bone marrow cells
Description: CHIP-qPCR assay. BM Lin-negative cells were used to extract chromatin DNA using MAGnify™ Chromatin Immunoprecipitation System (ThermoFisher) according to the manufacturer's instruction. CHIP purified chromatin DNA and input DNA were normalized to identical concentration for qPCR validation and enrichment analysis (1% enrichment of input level was defined as unit 1). The following antibodies were used for chromatin precipitation:Anti-IκBζ and Anti-Stat3 (Cell Signaling Technologies).

Tet2-KO mice = assay: LPS-induced acute inflammation (emergency granulopoiesis/hematopoiesis) in mice; type: in vivo, mouse; settings: for LPS-induced expansion of LSK cells in bone marrow / LPS-induced emergency neutrophil production in peripheral blood (emergency granulopoiesis): LPS 0.8 mg/kg i.p. one dose, drug two days before and two days after LPS, day 2 post LPS; for LPS-induced emergency neutrophil production in peripheral blood (emergency granulopoiesis): APX3330 20 mg/kg twice a day i.p., SHP099 50 mg/kg daily gavage
Description: Mice, LPS treatment and peripheral blood analysis. All mice were bred and maintained under specified pathogen-free (SPF) conditions at an animal facility at Indiana University School of Medicine. Experiments with mice were approved by the Institutional Animal Care and Use Committee (IACUC) of Indiana University School of Medicine. Tet2-knockout mice (Tet2^−/−, or Tet2-KO, CD45.2) is on C57BL/6 genetic background and has been previously described in Li et al., Blood 118, 4509-4518 (2011). Normal C57BL/6 (wild type, CD45.2) mice were purchased from The Jackson Laboratory and used as controls for all experiments. Whenever possible littermates were used as controls for all experiments.
as §1, §2, §3
It was next examined if APX3330 or SHP099 could repress inflammation and “emergency hematopoiesis” in Tet2-KO mice in vivo. It was first assessed if APX3330 or SHP099 could normalize LPS-induced acute inflammation. Before challenging the mice with LPS, wildtype and Tet2-KO mice were prophylactically treated with APX3330 or SHP099 for two days. Post LPS treatment, APX3330 or SHP099 was continuously injected in these mice for another two days (FIG. 13A). On day 2, post LPS treatment, mice were sacrificed and analyzed.

phospho-Stat3 = phospho-Stat3 expression in Tet2-KO Lin-negative cells; type: cell-based, mouse
[2] = aged (6-month old) Tet2-KO mice
[3] = aged (6-month old) Tet2-KO mice, listed as E3330

SMILES	colony forming ability (CFU formation) [1]	frequency of LSKs and CMPs (aged Tet2-KO mice; [2])	neutrophil counts (absolute numbers, burden) in peripheral blood (aged Tet2-KO mice; [2])	neutrophil frequency (percentage) in peripheral blood (aged Tet2-KO mice; [2])	platelet counts (aged Tet2-KO mice; [2])	red blood cell (RBC) counts (anemia) (aged Tet2-KO mice; [2])	serum IL-6 levels (aged Tet2-KO mice; [2])	spleen weight / splenomegaly (aged Tet2-KO mice; [2])	white blood cell (WBC) burden/count (aged Tet2-KO mice; [2])	early signs of MPN (aged Tet2-KO mice)	IκBζ and Stat3 binding to Morrbid promoter (Morrbid promoter)	LPS-induced expansion of LSK cells in bone marrow (Tet2-KO mice)	LPS-induced emergency neutrophil production in peripheral blood (emergency granulopoiesis) (Tet2-KO mice)	other results
CCCCCCCCCC(=CC1=C(C)C(=O)C(OC)=C(OC)C1=O)C(=O)O [APX3330]	normalization of colony formation; also recorded: block the enhanced colony forming activity	failed to reverse	significantly reduced	significantly reduced	restored	restores; also recorded: rescued to normal levels	reduced	a reduction in spleen weight was also observed in drug treated Tet2-KO mice, although it did not reach statistical significance; also recorded: failed to alter splenomegaly	significantly reduce; also recorded: restores	reverses early signs of MPN	reduced IKBζ and Stat3 binding to Morrbid promoter	significant correction; also recorded: effectively repressed; also recorded: represses the expansion of LSK cells	significant correction in the enhanced production of neutrophils; also recorded: effectively repressed; also recorded: represses emergency neutrophil production	colony forming ability (CFU formation) ([1]; listed as E3330): corrected the enhanced colony forming ability; hematocrits (HCT) (aged Tet2-KO mice; [2]): rescued to normal levels; neutrophil counts (absolute numbers, burden) in peripheral blood (aged Tet2-KO mice; [3]): rescue; neutrophil frequency (percentage) in peripheral blood (aged Tet2-KO mice; [3]): rescue; serum IL-6 levels (aged Tet2-KO mice; [3]): rescue; early signs of MPN (aged Tet2-KO mice; listed as E3330): reversed early signs of MPN; IκBζ and Stat3 binding to Morrbid promoter (Morrbid promoter; listed as E3330): rescues the enhanced binding of IκBζ and Stat3 to the Morribid promoter; LPS-induced emergency neutrophil production in peripheral blood (emergency granulopoiesis) (Tet2-KO mice; listed as E3330): repressed; LPS-induced expansion of LSK cells in bone marrow (Tet2-KO mice; listed as E3330): repressed; bone marrow cellularity (Tet2-KO mice; LPS-treated wild type and Tet2-KO mice, short-term treatment): maintained normal bone marrow cellularity
CC1(N)CCN(c2cnc(-c3cccc(Cl)c3Cl)c(N)n2)CC1 [SHP099, 6-(4-amino-4-methyl-1-piperidinyl)-3-(2,3-dichlorophenyl)-2-pyrazinamine]	decreased; also recorded: block the enhanced colony forming activity; also recorded: corrected the enhanced colony forming ability	failed to reverse	significantly reduce; also recorded: rescue	rescue	restored	restores	reduced; also recorded: rescue	a reduction in spleen weight was also observed in drug treated Tet2-KO mice, although it did not reach statistical significance	significantly reduce; also recorded: restores	reversed early signs of MPN	decreased; also recorded: rescues the enhanced binding of IκBζ and Stat3 to the Morribid promoter	significant correction; also recorded: effectively repressed	significant correction in the enhanced production of neutrophils; also recorded: effectively repressed	expression of phospho-Stat3 (phospho-Stat3): decreased expression of phospho-Stat3
